{
  "source": "patent US20250282794A1",
  "about": "(CURADEV PHARMA LTD, priority 2022, published 2025)",
  "data": [
    {"target": "recombinant full length HPK-1 enzyme (Homo sapiens (Human), UniProt Q92918)", "sequence (Q92918 whole entry, species assumed)": "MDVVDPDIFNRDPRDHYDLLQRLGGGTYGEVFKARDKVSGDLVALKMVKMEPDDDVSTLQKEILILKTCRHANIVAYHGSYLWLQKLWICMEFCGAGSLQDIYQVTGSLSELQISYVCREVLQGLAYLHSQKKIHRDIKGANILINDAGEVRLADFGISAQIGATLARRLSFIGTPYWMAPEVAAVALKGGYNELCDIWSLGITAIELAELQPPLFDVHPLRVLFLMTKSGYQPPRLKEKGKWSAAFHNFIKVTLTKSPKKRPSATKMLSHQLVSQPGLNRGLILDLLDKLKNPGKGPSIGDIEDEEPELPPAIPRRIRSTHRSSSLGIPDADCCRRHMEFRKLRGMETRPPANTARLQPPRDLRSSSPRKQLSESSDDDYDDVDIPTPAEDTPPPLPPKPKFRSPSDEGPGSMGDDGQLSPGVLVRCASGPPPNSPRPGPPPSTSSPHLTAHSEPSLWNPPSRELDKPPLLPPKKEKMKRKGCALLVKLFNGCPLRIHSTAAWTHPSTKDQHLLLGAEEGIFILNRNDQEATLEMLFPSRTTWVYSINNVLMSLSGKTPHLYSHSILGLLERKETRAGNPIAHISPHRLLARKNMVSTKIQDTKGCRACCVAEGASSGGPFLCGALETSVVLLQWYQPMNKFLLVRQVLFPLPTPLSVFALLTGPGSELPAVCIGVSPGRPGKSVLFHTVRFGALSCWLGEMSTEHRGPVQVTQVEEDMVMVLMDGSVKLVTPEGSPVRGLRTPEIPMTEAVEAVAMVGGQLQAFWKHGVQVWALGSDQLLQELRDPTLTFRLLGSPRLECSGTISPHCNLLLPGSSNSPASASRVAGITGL", "test": "HPK-1 biochemical enzyme assay (ADP-Glo kinase inhibition)", "settings": "recombinant full length HPK-1 6.8 nM, 10 μM ATP, 12.5 μM MBP, 30 mins at 25° C.", "method_in_brief": "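Recombinant full-length human HPK-1 (6.8 nM) incubated 30 min at 25° C. with 10 μM ATP and 12.5 μM swine MBP in 40 mM Tris pH 7.4, 20 mM MgCl2, 50 μM DTT, 0.1 mg/mL BSA. ADP measured by ADP-Glo; IC50 from 10 concentrations, normalized to no-enzyme and vehicle controls.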", "units": {"IC50": "nM"}, "values": [
      {"smiles": "Cc1c(Nc2cc[nH]c(=O)c2C(=O)Nc2ccc(N3CCC(C)CC3)cc2)cnc2c1NCCO2", "note": "[Example 280, 4-((8-methyl-2,3-dihydro-1H-pyrido[2,3-b][1,4]oxazin-7-yl)amino)-N-(4-(4-methylpiperidin-1-yl)phenyl)-2-oxo-1,2-dihydropyridine-3-carboxamide]", "IC50": "10 to 100"},
      {"smiles": "CCCCC(CC)CNC(=O)c1ccc(NC(=O)c2c(Nc3cnc4c(c3C)NCCO4)cc[nH]c2=O)cc1", "note": "(stereo not shown) [Example 281, N-(4-((2-ethylhexyl)carbamoyl)phenyl)-4-((8-methyl-2,3-dihydro-1H-pyrido[2,3-b][1,4]oxazin-7-yl)amino)-2-oxo-1,2-dihydropyridine-3-carboxamide]", "IC50": "10 to 100"},
      {"smiles": "Cc1c(Nc2cc[nH]c(=O)c2C(=O)Nc2ccc(N3CCN(CC(C)(C)O)CC3)cc2)cnc2c1NCCO2", "note": "[Example 282, N-(4-(4-(2-hydroxy-2-methylpropyl)piperazin-1-yl)phenyl)-4-((8-methyl-2,3-dihydro-1H-pyrido[2,3-b][1,4]oxazin-7-yl)amino)-2-oxo-1,2-dihydropyridine-3-carboxamide]", "IC50": "≤ 10"},
      {"smiles": "Cc1c(Nc2cc[nH]c(=O)c2C(=O)Nc2ccc(N3CCN(C(=O)C4CCCC4)CC3)cc2)cnc2c1NCCO2", "note": "[Example 283, N-(4-(4-(cyclopentanecarbonyl)piperazin-1-yl)phenyl)-4-((8-methyl-2,3-dihydro-1H-pyrido[2,3-b][1,4]oxazin-7-yl)amino)-2-oxo-1,2-dihydropyridine-3-carboxamide]", "IC50": "≤ 10"},
      {"smiles": "COCC(=O)N1CCN(c2ccc(NC(=O)c3c(Nc4cnc5c(c4C)NCCO5)cc[nH]c3=O)cc2)CC1", "note": "[Example 284, N-(4-(4-(2-methoxyacetyl)piperazin-1-yl)phenyl)-4-((8-methyl-2,3-dihydro-1H-pyrido[2,3-b][1,4]oxazin-7-yl)amino)-2-oxo-1,2-dihydropyridine-3-carboxamide]", "IC50": "≤ 10"},
      {"smiles": "COCCC(=O)N1CCN(c2ccc(NC(=O)c3c(Nc4cnc5c(c4C)NCCO5)cc[nH]c3=O)cc2)CC1", "note": "[Example 285, N-(4-(4-(3-methoxypropanoyl)piperazin-1-yl)phenyl)-4-((8-methyl-2,3-dihydro-1H-pyrido[2,3-b][1,4]oxazin-7-yl)amino)-2-oxo-1,2-dihydropyridine-3-carboxamide]", "IC50": "≤ 10"},
      {"smiles": "Cc1c(Nc2cc[nH]c(=O)c2C(=O)Nc2ccc(N3CCN(c4cccnc4)CC3)cc2)cnc2c1NCCO2", "note": "[Example 286, 4-((8-methyl-2,3-dihydro-1H-pyrido[2,3-b][1,4]oxazin-7-yl)amino)-2-oxo-N-(4-(4-(pyridin-3-yl)piperazin-1-yl)phenyl)-1,2-dihydropyridine-3-carboxamide]", "IC50": "≤ 10"},
      {"smiles": "CNC(=O)N1CCN(c2ccc(NC(=O)c3c(Nc4cnc5c(c4C)NCCO5)cc[nH]c3=O)cc2)CC1", "note": "[Example 287, N-methyl-4-(4-(4-((8-methyl-2,3-dihydro-1H-pyrido[2,3-b][1,4]oxazin-7-yl)amino)-2-oxo-1,2-dihydropyridine-3-carboxamido)phenyl)piperazine-1-carboxamide]", "IC50": "10 to 100"},
      {"smiles": "Cc1c(Nc2cc[nH]c(=O)c2C(=O)Nc2ccc(N3CCN(c4ccncc4)CC3)cc2)cnc2c1NCCO2", "note": "[Example 288, 4-((8-methyl-2,3-dihydro-1H-pyrido[2,3-b][1,4]oxazin-7-yl)amino)-2-oxo-N-(4-(4-(pyridin-4-yl)piperazin-1-yl)phenyl)-1,2-dihydropyridine-3-carboxamide]", "IC50": "≤ 10"},
      {"smiles": "COCCN(C)C(=O)N1CCN(c2ccc(NC(=O)c3c(Nc4cnc5c(c4C)NCCO5)cc[nH]c3=O)cc2)CC1", "note": "[Example 290, N-(2-methoxyethyl)-N-methyl-4-(4-(4-((8-methyl-2,3-dihydro-1H-pyrido[2,3-b][1,4]oxazin-7-yl)amino)-2-oxo-1,2-dihydropyridine-3-carboxamido)phenyl)piperazine-1-carboxamide]", "IC50": "≤ 10"},
      {"smiles": "Cc1c(Nc2cc[nH]c(=O)c2C(=O)Nc2ccc(N3CCN(C)CC3)c(N(C)C)c2)cnc2c1NCCO2", "note": "[Example 291, N-(3-(dimethylamino)-4-(4-methylpiperazin-1-yl)phenyl)-4-((8-methyl-2,3-dihydro-1H-pyrido[2,3-b][1,4]oxazin-7-yl)amino)-2-oxo-1,2-dihydropyridine-3-carboxamide]", "IC50": "10 to 100"},
      {"smiles": "Cc1c(Nc2cc[nH]c(=O)c2C(=O)Nc2ccc(N3CCN(C4CCN(C)CC4)CC3)cc2)cnc2c1NCCO2", "note": "[Example 292, 4-((8-methyl-2,3-dihydro-1H-pyrido[2,3-b][1,4]oxazin-7-yl)amino)-N-(4-(4-(1-methylpiperidin-4-yl)piperazin-1-yl)phenyl)-2-oxo-1,2-dihydropyridine-3-carboxamide]", "IC50": "≤ 10"},
      {"smiles": "Cc1c(Nc2cc[nH]c(=O)c2C(=O)Nc2ccc(N3CCN(C(=O)[C@@H]4C[C@@H]4F)CC3)cc2)cnc2c1NCCO2", "note": "[Example 293, N-(4-(4-((1S,2S)-2-fluorocyclopropane-1-carbonyl)piperazin-1-yl)phenyl)-4-((8-methyl-2,3-dihydro-1H-pyrido[2,3-b][1,4]oxazin-7-yl)amino)-2-oxo-1,2-dihydropyridine-3-carboxamide]", "IC50": "≤ 10"},
      {"smiles": "Cc1c(Nc2cc[nH]c(=O)c2C(=O)Nc2ccc(N3CCN(C)CC3)c(N)c2)cnc2c1NCC(C)O2", "note": "(stereo not shown) [Example 294, N-(3-amino-4-(4-methylpiperazin-1-yl)phenyl)-4-((3,8-dimethyl-2,3-dihydro-1H-pyrido[2,3-b][1,4]oxazin-7-yl)amino)-2-oxo-1,2-dihydropyridine-3-carboxamide]", "IC50": "≤ 10"},
      {"smiles": "CNc1cc(NC(=O)c2c(Nc3cnc4c(c3C)NCCO4)cc[nH]c2=O)ccc1N1CCN(C)CC1", "note": "[Example 295, 4-((8-methyl-2,3-dihydro-1H-pyrido[2,3-b][1,4]oxazin-7-yl)amino)-N-(3-(methylamino)-4-(4-methylpiperazin-1-yl)phenyl)-2-oxo-1,2-dihydropyridine-3-carboxamide]", "IC50": "10 to 100"},
      {"smiles": "Cc1c(Nc2cc[nH]c(=O)c2C(=O)Nc2ccc3nc(NC(=O)[C@@H]4C[C@@H]4F)sc3c2)cnc2c1NCCO2", "note": "[Example 296, N-(2-((1S,2S)-2-fluorocyclopropane-1-carboxamido)benzo[d]thiazol-6-yl)-4-((8-methyl-2,3-dihydro-1H-pyrido[2,3-b][1,4]oxazin-7-yl)amino)-2-oxo-1,2-dihydropyridine-3-carboxamide]", "IC50": "100 to 1000"},
      {"smiles": "Cc1c(Nc2cc[nH]c(=O)c2C(=O)Nc2ccc3sc(NC(=O)[C@@H]4C[C@@H]4F)nc3c2)cnc2c1NCCO2", "note": "[Example 297, N-(2-((1S,2S)-2-fluorocyclopropane-1-carboxamido)benzo[d]thiazol-5-yl)-4-((8-methyl-2,3-dihydro-1H-pyrido[2,3-b][1,4]oxazin-7-yl)amino)-2-oxo-1,2-dihydropyridine-3-carboxamide]", "IC50": "100 to 1000"},
      {"smiles": "Cc1c(Nc2cc[nH]c(=O)c2C(=O)Nc2ccc(N3CCN(CC(=O)N(C)C)CC3)cc2)cnc2c1NCCO2", "note": "[Example 298, N-(4-(4-(2-(dimethylamino)-2-oxoethyl)piperazin-1-yl)phenyl)-4-((8-methyl-2,3-dihydro-1H-pyrido[2,3-b][1,4]oxazin-7-yl)amino)-2-oxo-1,2-dihydropyridine-3-carboxamide]", "IC50": "≤ 10"},
      {"smiles": "CN1CCN(c2ccc(NC(=O)c3c(Nc4cnc5c(c4C#N)NCCO5)cc[nH]c3=O)cc2)CC1", "note": "[Example 299, 4-((8-cyano-2,3-dihydro-1H-pyrido[2,3-b][1,4]oxazin-7-yl)amino)-N-(4-(4-methylpiperazin-1-yl)phenyl)-2-oxo-1,2-dihydropyridine-3-carboxamide]", "IC50": "10 to 100"},
      {"smiles": "Cc1c(Nc2cc[nH]c(=O)c2C(=O)Nc2ccc(N3CCC(C(C)(C)O)CC3)cc2)cnc2c1NCCO2", "note": "[Example 300, N-(4-(4-(2-hydroxypropan-2-yl)piperidin-1-yl)phenyl)-4-((8-methyl-2,3-dihydro-1H-pyrido[2,3-b][1,4]oxazin-7-yl)amino)-2-oxo-1,2-dihydropyridine-3-carboxamide]", "IC50": "≤ 10"},
      {"smiles": "Cc1c(Nc2cc[nH]c(=O)c2C(=O)Nc2ccc(N3CCC(C)(CO)CC3)cc2)cnc2c1NCCO2", "note": "[Example 301, N-(4-(4-(hydroxymethyl)-4-methylpiperidin-1-yl)phenyl)-4-((8-methyl-2,3-dihydro-1H-pyrido[2,3-b][1,4]oxazin-7-yl)amino)-2-oxo-1,2-dihydropyridine-3-carboxamide]", "IC50": "10 to 100"},
      {"smiles": "Cc1c(Nc2cc[nH]c(=O)c2C(=O)Nc2ccc(N3CCC(C(C)O)CC3)cc2)cnc2c1NCCO2", "note": "(stereo not shown) [Example 302, N-(4-(4-(1-hydroxyethyl)piperidin-1-yl)phenyl)-4-((8-methyl-2,3-dihydro-1H-pyrido[2,3-b][1,4]oxazin-7-yl)amino)-2-oxo-1,2-dihydropyridine-3-carboxamide]", "IC50": "≤ 10"},
      {"smiles": "Cc1c(Nc2cc[nH]c(=O)c2C(=O)Nc2ccc(N3CCN(C(=O)c4ccn[nH]4)CC3)cc2)cnc2c1NCCO2", "note": "[Example 303, N-(4-(4-(1H-pyrazole-5-carbonyl)piperazin-1-yl)phenyl)-4-((8-methyl-2,3-dihydro-1H-pyrido[2,3-b][1,4]oxazin-7-yl)amino)-2-oxo-1,2-dihydropyridine-3-carboxamide]", "IC50": "≤ 10"},
      {"smiles": "Cc1c(Nc2cc[nH]c(=O)c2C(=O)Nc2ccc(N3CCN(C(=O)C4CC(C)(C)C4)CC3)cc2)cnc2c1NCCO2", "note": "[Example 304, N-(4-(4-(3,3-dimethylcyclobutane-1-carbonyl)piperazin-1-yl)phenyl)-4-((8-methyl-2,3-dihydro-1H-pyrido[2,3-b][1,4]oxazin-7-yl)amino)-2-oxo-1,2-dihydropyridine-3-carboxamide]", "IC50": "≤ 10"},
      {"smiles": "Cc1c(Nc2cc[nH]c(=O)c2C(=O)Nc2ccc(N3CCN(C(=O)C4CC4C)CC3)cc2)cnc2c1NCCO2", "note": "(stereo not shown) [Example 305, 4-((8-methyl-2,3-dihydro-1H-pyrido[2,3-b][1,4]oxazin-7-yl)amino)-N-(4-(4-(2-methylcyclopropane-1-carbonyl)piperazin-1-yl)phenyl)-2-oxo-1,2-dihydropyridine-3-carboxamide]", "IC50": "≤ 10"}
    ]}
  ]
}
